US20210069194A1, “COMBINATION THERAPY FOR THE TREATMENT OF CANCER” (MingSight Pharmaceuticals, Inc., priority 2018, published 2021)

Columns and labels:
[1] = system: IL-6 production in TMD8 cells; assay: IL-6 assay (ELISA) in TMD8 cells; assay type: cell-based, Human; settings: for Inhibition of IL-6 production: TMD8 cells (activating CD79 mutation), 48 hours
Method: (§1) TMD8 cells were grown in MEM media supplemented with 10% fetal calf serum (FCS), non-essential vitamin mix, and penicillin-streptomycin antibiotics (pen-strep). HBL1 cells were grown in RPMI-1640 media supplemented with 10% FCS and pen-strep. OCI-Ly3 cells were grown in DMEM media with 15% FCS, non-essential vitamin mix, pen-strep, and 25 mM HEPES buffer. Cells were maintained in suspension culture, fed twice weekly, and split 1:3 approximately every two weeks (TMD8, OCI-Ly3) or weekly (HBL1).
(§2) Cells were harvested via centrifugation and resuspended twice to rinse the media of any IL-6. Cells were then plated in 96 well plates at 5×10^5 cells per well and exposed to increasing concentrations of Compound A, sotrastaurin, or media containing 0.1% DMSO (negative control). For each cell type, experiments were performed in the media used for growth and maintenance. Cells were allowed to grow for 48 hours after plating in the presence of inhibitors. Following compound exposure, cells were pelleted in the 96 well plate, supernatant was removed, and the concentration of IL-6 in the supernatant was determined using R&D Systems Haman IL-6 Quantikine® ELISA Kit (D6050) according to manufacturer's instructions.

[2] = system: IL-6 production in OCI-Ly3 cells; assay: IL-6 assay (ELISA) in OCI-Ly3 cells; assay type: cell-based, Human; settings: OCI-Ly3 cells (no activating CD79 mutation), 48 hours
Method: as §1, §2

TMD8 cells [3] = assay: Cell proliferation and survival assay (MTT), TMD8; assay type: cell-based, Human; settings: for Inhibition of cell proliferation and survival: TMD8 cells, MTT, 96 hours
Method: (§3) TMD8 cells were grown in MEM media supplemented with 10% fetal calf serum (FCS), non-essential vitamin mix, and penicillin-streptomycin antibiotics (pen-strep). HBL1 cells were grown in RPMI-1640 media supplemented with 10% FCS and pen-strep. OCI-Ly3 cells were grown in DMEM media with 15% FCS, non-essential vitamin mix, pen-strep, and 25 mM HEPES buffer. Cells were maintained in suspension culture, fed twice weekly, and split 1:3 approximately every two weeks (TMD8, OCI-Ly3) or weekly (HBL1). Cells were cultured and maintained as described above, with cells always fed on the day prior to assay. Proliferation and survival of cells was quantified using an MTT assay kit according to manufacturer's instructions (Cell Proliferation Kit 1, Roche Diagnostics, Cat. No. 11 465 007 001). Experiments were performed in the same media used by each cell type for growth and maintenance. Cells (5×10^4) were plated in 96 well plates and allowed to grow for 96 hours in the presence of inhibitors. After the exposure period was completed, MTT reagent was added for 3-4 hours. The MTT solubilization reagent was then added to stop the reaction and cells were incubated overnight at 37° C. The plate read the next day according to the kit instructions.

OCI-Ly3 cells = assay: Cell proliferation and survival assay (MTT), OCI-Ly3; assay type: cell-based, Human; settings: 96 hours
Method: as §3

Human PKC delta = Human PKC delta (Homo sapiens, UniProt Q05655); assay: PKC isoform inhibition in vitro assay, PKC delta; assay type: biochemical
[4] = system: IL-6 production in HBL1 cells; assay: IL-6 assay (ELISA) in HBL1 cells; assay type: cell-based, Human; settings: HBL1 cells (activating CD79 mutation), 48 hours, data not shown
HBL1 cells = assay: Cell proliferation and survival assay (MTT), HBL1; assay type: cell-based, Human; settings: 96 hours, data not shown
TMD8 cells [5] = assay: TMD8 mouse xenograph model of DLBCL, tumor volume; assay type: in vivo, SCID mice; settings: 120 mg/kg BID
Method: (§4) To test the efficacy of Compound A in vivo, TMD8 cells were grown and subcutaneously injected into SCID mice. Large scale suspension culture of TMD8 cells was performed in T250 flasks, where cells were expanded weekly. Animals (n=24) were inoculated with 10×10^6 cells (10×10^6 cells in 100 μL volume of 50% Matrigel®) subcutaneously in the animal's right flank.

[6] = TMD8 mouse xenograph model of DLBCL, body weight; assay type: in vivo, SCID mice; settings: 120 mg/kg BID
Method: as §4

circulating lymphocytes = assay: Peripheral lymphocyte levels in healthy humans, multiple ascending dose study; assay type: in vivo, human; settings: healthy humans, 50, 100, 150, 200 mg BID, 14 days
Method: Normal, healthy human patients received various doses of Compound A for 14 days of dosing. The dose levels were as follows: cohort 1: 50 mg, BID; cohort 2: 100 mg, BID; cohort 3, 150 mg, BID; and cohort 4,200 mg BID.

Human PKC delta, sequence (Q05655 whole entry, canonical isoform): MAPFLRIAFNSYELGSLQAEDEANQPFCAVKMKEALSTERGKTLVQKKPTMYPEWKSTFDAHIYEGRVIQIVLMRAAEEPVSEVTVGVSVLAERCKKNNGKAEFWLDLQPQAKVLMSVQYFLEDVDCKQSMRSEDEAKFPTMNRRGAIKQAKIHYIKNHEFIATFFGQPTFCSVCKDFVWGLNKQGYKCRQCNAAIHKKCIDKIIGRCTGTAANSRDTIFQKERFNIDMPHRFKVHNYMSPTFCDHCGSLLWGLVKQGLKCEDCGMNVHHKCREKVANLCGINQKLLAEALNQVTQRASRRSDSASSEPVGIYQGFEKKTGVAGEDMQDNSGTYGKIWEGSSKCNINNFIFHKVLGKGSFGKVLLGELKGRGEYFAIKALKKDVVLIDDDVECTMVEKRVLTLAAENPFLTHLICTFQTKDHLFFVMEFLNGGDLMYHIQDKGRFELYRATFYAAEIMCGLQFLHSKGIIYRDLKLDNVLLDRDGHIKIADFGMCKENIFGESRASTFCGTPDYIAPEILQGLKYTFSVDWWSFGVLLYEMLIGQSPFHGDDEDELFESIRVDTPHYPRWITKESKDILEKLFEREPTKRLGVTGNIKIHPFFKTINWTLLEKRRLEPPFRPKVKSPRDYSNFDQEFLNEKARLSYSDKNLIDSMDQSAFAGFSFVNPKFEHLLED

For CN1CCN(c2nc(C3=C(c4c[nH]c5ccccc45)C(=O)NC3=O)c3ccccc3n2)CC1 [sotrastaurin, reference compound], the “Inhibition of IL-6 production” value [1] was “dose dependent inhibition”, the “Inhibition of IL-6 production” value [2] was “not affected” and the “Inhibition of cell proliferation and survival” value (TMD8 cells [3]) was “dose dependent inhibition”. The “Inhibition of cell proliferation and survival” value (OCI-Ly3 cells) was “not affected by either compound except at the highest doses tested”.
In the case of Cc1ncc(F)c(Nc2n[nH]c3c2CN(C(=O)N2C[C@@H](C)N(CC4CCOCC4)C[C@@H]2C)C3(C)C)n1 [Compound A, 5-{[(2S,5R)-2,5-Dimethyl-4-(tetrahydro-2H-pyran-4-ylmethyl)piperazin-1-yl]carbonyl}-N-(5-fluoro-2-methylpyrimidin-4-yl)-6,6-dimethyl-1,4,5,6-tetrahydropyrrolo[3,4-c]pyrazol-3-amine], the “Inhibition of PKC delta (in words)” value (Human PKC delta) is reported as “does not inhibit PKC delta to any appreciable degree”, the “Potency compared to sotrastaurin, IL-6 assay” value [1] is reported as “slightly more potent” and the “Inhibition of IL-6 production” value [1] is reported as “dose-dependent inhibition”. For the same compound, the “Inhibition of IL-6 production” value [4] was “dose-dependent inhibition”, the “Inhibition of IL-6 production” value [2] was “not affected” and the “Potency compared to sotrastaurin, cell proliferation assay” value (TMD8 cells [3]) was “modestly more potent”. For the same compound, the “Inhibition of cell proliferation and survival” value (TMD8 cells [3]) was “dose-dependent inhibition”, the “Inhibition of cell proliferation and survival” value (HBL1 cells) was “dose-dependent inhibition” and the “Inhibition of cell proliferation and survival” value (OCI-Ly3 cells) was “not affected by either compound except at the highest doses tested”. For the same compound, the Mean tumor volume (TMD8 cells [5]; study day 20) was 898 mm^3, the Mean tumor volume (TMD8 cells [5]; study day 28) was 970 mm^3 and the “Increase of mean tumor volume” value (TMD8 cells [5]; study days 20 to 28) was 8%. For the same compound, the “Tumor growth (in words)” value (TMD8 cells [5]; study days 20 to 28) was “no appreciable amounts of tumor growth”, the “Mean weight of vehicle treated group greater than Compound A treated animals by” value [6] was 1.8 g and the Body weight change ([6]; day 24-28) was “no increase in body weight”. The “Number of circulating lymphocytes” value (circulating lymphocytes) was “dose dependent increase”.
